Assay results taken from US8716285B2, “N-hydroxy-benzamids for the treatment of cancer” (Hoffmann-La Roche Inc., priority 2010, dated 2014).

System: RPMI-8226 cells
Assay: Growth inhibitory synergy with Velcade, WST/CCK-8 assay
Type: cell-based
Conditions: 72 h
Protocol: Cells were seeded in 96-well culture plates (200 μl/well at different seeding concentrations depending on cell type) and incubated overnight at 37° C. in 5% CO2. After adding compound dilutions to the cells (DMSO concentration kept below 0.5%), the cells were incubated at 37° C. in 5% CO2 for 72 hours. The effects on proliferation were determined by addition of CCK-8 reagent (Dojindo) according to the manufacturer's instruction, followed by incubation for 2 hours at 37° C. in 5% CO2, and finally recording the absorbance at 450 nm using an ELISA plate reader.
Novel compounds were tested for their synergistic effect with Velcade in multiple myeloma cells in vitro. Briefly, the multiple myeloma cells (RPMI-8226, OPM-2, or NCI-H929) were seeded into 96 well plate at 18000-20000 cells per well. The GI50s of these compounds against myeloma cells were measured by WST assay. […] The tested compound and Velcade used the same dilution factor in the combination treatment. […] After 72 h treatment, cell viability was measured at 450 nm by SpectraMAX190 after 2 h incubation with CCK8 reagent at 37° C. Synergy between the tested compounds and velcade was analyzed by software Calcusyn. […]
Notes: Chou and Talalay in 1983 proposed the designation of CI (combination index)=1 as the additive effect. […] It can be calculated by the equation above. […]

O=C(NO)c1ccc2c(c1)CC(Nc1nccc(-c3cccnc3)n1)CC2 (stereo not shown) [Example 24, 7-(4-Pyridin-3-yl-pyrimidin-2-ylamino)-5,6,7,8-tetrahydro-naphthalene-2-carboxylic acid hydroxyamide]
synergy with Velcade in cell growth inhibition: synergized with Velcade
